Measured values: patent publication US12435109B2, “Compositions and methods for dissolving protein aggregates” (REJUKON BIOPHARM INC., priority 2020, dated 2025)
Entries after “also recorded” stand apart in the source; their conditions may differ.

Columns and labels:
[1] = test system: SOD1(G93A)-GFP protein aggregates in motor neurons; test: SOD1(G93A) protein aggregates in primary cultured motor neurons, live imaging; format: cell-based, rat; settings: 20 μM polypeptide
Method: Real-time imaging technology using fluorescence microscope was used to observe the cell culture. The left panel is the polypeptide RJK001; the right panel is the control polypeptide RJK005. […] The right image in each panel is the microscopic image at 24 hours after adding the polypeptides.
(§1) An ALS rat motor neuron model that can be used to overexpress FUS-GFP protein and SOD1 (G93A) protein was generated using the following steps.
After the E13.5 rat is anesthetized, open the abdominal cavity and take out the uterus to a 10 cm dish. Add HBSS, use scissors and tweezers to remove the embryos to a new 10 cm dish. Separate the head and trunk of the embryo and move to anatomical spinal cord under a stereoscope. With the torso facing up, fix the hind limbs with a microscopic forceps. After finding the translucent spine, use another microscopic forceps to lift the skin forward and upward, and then open the connection on the side of the spine. Pick up the spine from the tail. Fix the head of the spine with the back side facing up and pick up the membrane. Turn the abdomen up, peel off the membrane, most of the DRG was removed. […]
A rat motor neuron model of ALS pathogenic SOD1 (G93A) protein aggregates was prepared according to Example 4. […] The dissolution effect of the polypeptides on proteins aggregates in motor neurons was recorded with live images using laser confocal fluorescence microscope. […]

[2] = test system: TIA1 protein aggregates in SH-SY5Y cells; test: TIA1 protein aggregates in heat-shocked SH-SY5Y cell model; format: cell-based; settings: heat shock 42° C. 1 hour, 1 μg polypeptide-plasmid
[3] = test system: FUS protein aggregates in SH-SY5Y cells; test: FUS protein aggregates in heat-shocked SH-SY5Y cell model overexpressing FUS; format: cell-based; settings: heat shock 42° C. 1 hour, 1 μg polypeptide-plasmid
Excerpt: Polypeptides RJK001˜RJK004 and control polypeptides RJK005˜RJK007 were transfected into the SH-SY5Y cell model overexpressing FUS-mCherry after heat stimulation. The staining of G3BP1 represents the stress granule.
Polypeptides RJG001˜RJG003 and control polypeptide RJK005 were transfected into the SH-SY5Y cell model overexpressing FUS-mCherry after heat stimulation. The staining of G3BP1 represents the stress granule.
(§2) An SH-SY5Y cell model that overexpresses FUS-GFP protein or TDP-43-mCherry protein was generated using the following steps:
SH-SY5Y cells were cultured in DMEM/F12 medium containing 10% fetal bovine serum in a 37° C., 5% carbon dioxide incubator. […]
(§3) The SH-SY5Y cell model (initially cultured at 37° C.) transfected with the FUS plasmid according to Example 2 was placed in a 42° C. incubator for 1 hour for heat shock treatment to cause FUS protein aggregation. […] Laser confocal fluorescence microscope was used to observe the accumulation of overexpressed FUS in SH-SY5Y cells.
as §3

[4] = test system: TDP-43 protein aggregates in SH-SY5Y cells; test: TDP-43 protein aggregates in heat-shocked SH-SY5Y cell model overexpressing TDP-43-mCherry; format: cell-based; settings: SH-SY5Y overexpressing TDP-43-mCherry, heat shock 42° C. 1 hour, 1 μg polypeptide-plasmid
Method: Polypeptides RJK001˜RJK004 and control polypeptides RJK005˜RJK007 were transfected into the SH-SY5Y cell model overexpressing TDP-43-mCherry after heat stimulation. The staining of G3BP1 represents the stress granule.
as §2
SH-SY5Y cells were cultured in DMEM/F12 medium containing 10% fetal bovine serum in a 37° C., 5% carbon dioxide incubator. After the cell confluence reaches 80%, the culture medium was removed using a vacuum pump or pipette. The cells were washed once with PBS. Add trypsin-EDTA (0.05%) to the culture dish and incubate it in a 37° C. cell incubator for 1 min. Add twice the volume of culture medium to stop the digestion, and gently blow the cells to suspend the cells into a uniform cell suspension. Add the cell suspension to a 15 mL centrifuge tube and centrifuge at 1200 rpm for 3 minutes. Discard the supernatant and resuspend the cells in fresh complete medium. […]
The SH-SY5Y cell model (initially cultured at 37° C.) transfected with the TDP-43 plasmid prepared according to Example 2 was placed in a 42° C. incubator for 1 hour for heat shock treatment to cause the TDP43 protein to separate and aggregate. […] Laser confocal fluorescence microscopy was used to observe the accumulation of TDP-43 and cell-endogenous G3BP1 in SH-SY5Y cells.

[5] = test system: FUS-GFP protein aggregates in motor neurons; test: FUS-GFP protein aggregates in primary cultured motor neurons, live imaging; format: cell-based, rat; settings: 20 μM polypeptide
Method: Real-time imaging technology using fluorescence microscope was used to observe the cell culture. […] The left 2-3 images are the microscopic images when the polypeptides were just added (0 min); the middle images are the microscopic images at different time points (30 minutes, 60 minutes, 90 minutes) after the polypeptides were added, and the right image is the microscopic image at 120 minutes after adding the polypeptides.
as §1
After the E13.5 rat is anesthetized, open the abdominal cavity and take out the uterus to a 10 cm dish. Add HBSS, use scissors and tweezers to remove the embryos to a new 10 cm dish. Separate the head and trunk of the embryo and move to anatomical spinal cord under a stereoscope. With the torso facing up, fix the hind limbs with a microscopic forceps. After finding the translucent spine, use another microscopic forceps to lift the skin forward and upward, and then open the connection on the side of the spine. Pick up the spine from the tail. Fix the head of the spine with the back side facing up and pick up the membrane. Turn the abdomen up, peel off the membrane, most of the DRG was removed. Remove the DRG attached to the spinal cord and move to a new 6 cm dish. Use micro tweezers to move the spinal cord to a 5 ml centrifuge tube, use tweezers to crush it to a size of 1 mm, add 1× Trypsin (diluted by HBSS), and place in a 37° C. incubator for 25-30 minutes. Use a 1 ml pipette tip to suck the tissue mass into the preheated 3 ml MN Medium and blow away the tissue mass. Pass the 40 um filer, transfer the cells to a 5 ml centrifuge tube, centrifuge at 400 g, 5 min to remove the supernatant. Resuspend the cells in 3 mlMN medium, take 10 ul and count. […]
A rat motor neuron model of ALS pathogenic FUS protein aggregates was prepared according to Example 4. […] The dissolution effect of the polypeptides on proteins aggregates in motor neurons was recorded with live images using laser confocal fluorescence microscope. […]

Q: “TEPQEESEEEVEEPEERQQTPEVVPDDSGTFYDQTVSNDLE [RJK001, polypeptide capable of dissolving protein aggregates]” was tested. Which “aggregation of SOD1 (G93A) protein in motor neurons at 24 hours after adding polypeptide” value [1] did it give?
A: Its value is “dissolved significantly”.

Q: And the “dissolving effect on SOD1 (G93A) protein aggregates in motor neurons” value ([1]; motor neurons, day 10 in vitro, 24 hours)?
A: The value was “significant dissolving effect; also recorded: enhanced the dissolution”.

Q: What about the “dissolution of TIA1 protein aggregates / number of phase-separated droplets of TIA1 protein in SH-SY5Y cells versus control” value [2] of the same sequence?
A: Its value is “significantly less; also recorded: significant dissolving effect”.

Q: And the “dissolution of FUS protein aggregates / number of phase-separated droplets of FUS protein in SH-SY5Y cells versus control” value [3]?
A: Its value is “significantly less; also recorded: significant dissolving effect”.

Q: What about the “dissolution of TDP-43 protein aggregates / number of phase-separated droplets of TDP-43 protein in SH-SY5Y cells versus control” value [4] of the same sequence?
A: The value was “significantly less; also recorded: significant dissolving effect”.

Q: And the “aggregation of ALS pathogenic FUS protein in motor neurons at 90 minutes after adding polypeptide” value ([5]; 90 minutes)?
A: Its value is “began to dissolve significantly”.

Q: And the “aggregation of ALS pathogenic FUS protein in motor neurons after 120 minutes” value ([5]; 120 minutes)?
A: Its value is “essentially dissolved”.

Q: What about the “dissolving effect on FUS protein aggregates in motor neurons” value ([5]; motor neurons, day 10 in vitro, up to 120 minutes) of the same sequence?
A: Its value is “significant dissolving effect; also recorded: enhanced the dissolution”.
